Assay results: ChEMBL document CHEMBL1201862, “PubChem BioAssay data set” (2004)
Activity calls are given as the source filed them.

Tests used:
[1] = biological target: T1, 1-phosphatidylinositol 4,5-bisphosphate phosphodiesterase beta-3 (Homo sapiens, UniProt Q01970); assay: Fluorescence-based biochemical high throughput dose response assay to identify inhibitors of phospholipase C isozymes (PLC-B3).
T1 sequence (Q01970 whole entry): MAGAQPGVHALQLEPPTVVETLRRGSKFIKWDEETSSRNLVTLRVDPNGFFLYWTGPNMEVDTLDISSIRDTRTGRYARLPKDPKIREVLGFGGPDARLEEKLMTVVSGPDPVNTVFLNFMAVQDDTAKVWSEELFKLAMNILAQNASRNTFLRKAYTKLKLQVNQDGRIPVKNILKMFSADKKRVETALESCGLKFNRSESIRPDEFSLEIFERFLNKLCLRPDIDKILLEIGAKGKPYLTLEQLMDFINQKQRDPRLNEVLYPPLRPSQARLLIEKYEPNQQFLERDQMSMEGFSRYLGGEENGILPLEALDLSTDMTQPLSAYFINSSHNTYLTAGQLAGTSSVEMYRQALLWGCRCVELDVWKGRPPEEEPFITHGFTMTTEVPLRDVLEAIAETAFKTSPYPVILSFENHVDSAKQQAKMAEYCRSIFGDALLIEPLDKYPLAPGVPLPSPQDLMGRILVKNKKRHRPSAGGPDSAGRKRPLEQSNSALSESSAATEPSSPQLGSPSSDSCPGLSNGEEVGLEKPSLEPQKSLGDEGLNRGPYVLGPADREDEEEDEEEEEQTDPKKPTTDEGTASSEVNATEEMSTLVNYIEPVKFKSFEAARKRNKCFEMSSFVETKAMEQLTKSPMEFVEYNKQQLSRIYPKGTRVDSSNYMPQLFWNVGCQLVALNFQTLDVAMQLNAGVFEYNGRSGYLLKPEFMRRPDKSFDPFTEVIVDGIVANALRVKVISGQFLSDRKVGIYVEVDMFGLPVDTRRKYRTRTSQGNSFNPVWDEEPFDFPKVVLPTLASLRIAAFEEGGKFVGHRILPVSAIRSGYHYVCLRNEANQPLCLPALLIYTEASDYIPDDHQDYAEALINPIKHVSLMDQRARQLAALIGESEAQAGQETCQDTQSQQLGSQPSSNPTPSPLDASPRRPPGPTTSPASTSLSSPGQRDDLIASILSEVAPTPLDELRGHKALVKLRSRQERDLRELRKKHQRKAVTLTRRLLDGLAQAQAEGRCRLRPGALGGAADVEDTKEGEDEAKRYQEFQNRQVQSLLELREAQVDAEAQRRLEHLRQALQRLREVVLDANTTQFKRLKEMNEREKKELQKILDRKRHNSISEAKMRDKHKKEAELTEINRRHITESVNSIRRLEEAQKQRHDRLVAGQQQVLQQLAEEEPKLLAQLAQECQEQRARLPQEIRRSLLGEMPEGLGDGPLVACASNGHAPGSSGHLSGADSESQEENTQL

[2] = biological target: T2, 1-phosphatidylinositol 4,5-bisphosphate phosphodiesterase gamma-1 (Homo sapiens, UniProt P19174); assay: Counterscreen for inhibitors of phospholipase C isozymes (PLC-B3): Fluorescence-based biochemical high throughput dose response assay to identify inhibitors of phospholipase C isozymes (PLC-gamma1).
T2 sequence (P19174 whole entry): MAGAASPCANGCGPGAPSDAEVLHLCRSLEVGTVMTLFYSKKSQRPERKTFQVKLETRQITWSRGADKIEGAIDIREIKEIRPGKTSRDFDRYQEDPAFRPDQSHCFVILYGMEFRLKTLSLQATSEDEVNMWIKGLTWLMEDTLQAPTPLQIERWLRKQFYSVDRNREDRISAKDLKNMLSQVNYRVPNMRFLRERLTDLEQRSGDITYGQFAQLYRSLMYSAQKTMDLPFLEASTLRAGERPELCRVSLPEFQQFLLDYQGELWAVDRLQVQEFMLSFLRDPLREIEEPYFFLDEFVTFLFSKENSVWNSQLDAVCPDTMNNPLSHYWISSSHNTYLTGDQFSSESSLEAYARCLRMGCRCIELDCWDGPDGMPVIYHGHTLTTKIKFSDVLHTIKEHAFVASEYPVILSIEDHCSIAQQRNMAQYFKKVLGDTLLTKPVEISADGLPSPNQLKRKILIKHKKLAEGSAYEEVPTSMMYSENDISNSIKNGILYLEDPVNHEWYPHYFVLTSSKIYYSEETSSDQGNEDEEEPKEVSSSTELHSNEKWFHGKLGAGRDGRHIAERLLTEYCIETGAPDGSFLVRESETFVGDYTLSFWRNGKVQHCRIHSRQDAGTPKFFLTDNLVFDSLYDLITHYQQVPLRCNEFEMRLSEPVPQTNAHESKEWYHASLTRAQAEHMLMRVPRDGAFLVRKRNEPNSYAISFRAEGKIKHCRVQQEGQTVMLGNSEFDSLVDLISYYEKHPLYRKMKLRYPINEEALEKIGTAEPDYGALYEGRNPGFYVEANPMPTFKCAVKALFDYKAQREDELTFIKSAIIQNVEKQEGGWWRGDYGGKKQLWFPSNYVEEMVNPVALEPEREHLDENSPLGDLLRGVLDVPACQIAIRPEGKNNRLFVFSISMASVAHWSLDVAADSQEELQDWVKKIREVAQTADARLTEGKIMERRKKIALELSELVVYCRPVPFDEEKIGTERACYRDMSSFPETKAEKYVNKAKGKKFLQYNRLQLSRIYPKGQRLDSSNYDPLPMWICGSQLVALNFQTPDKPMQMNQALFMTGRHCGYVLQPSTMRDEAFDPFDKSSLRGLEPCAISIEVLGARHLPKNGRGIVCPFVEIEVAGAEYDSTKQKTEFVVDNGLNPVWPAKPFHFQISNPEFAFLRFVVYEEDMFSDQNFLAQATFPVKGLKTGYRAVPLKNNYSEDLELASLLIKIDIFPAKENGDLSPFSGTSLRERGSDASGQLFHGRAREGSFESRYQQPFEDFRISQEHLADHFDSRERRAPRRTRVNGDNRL

SMILES: O=S(=O)(O)c1cc(Cl)cc(N=Nc2ccc(O)cc2O)c1O
- IC50 [1]: > 122 µM (inactive)
- IC50 [2]: > 122 µM (inactive)

SMILES: O=C(O)c1cccc(-n2cccc2/C=C2/NC(=O)N(c3ccc(Cl)cc3)C2=O)c1
- IC50 [1]: > 122 µM (inactive)
- IC50 [2]: > 122 µM (inactive)
